Results taken from ChEMBL document CHEMBL2407077, “Cycloforskamide, a cytotoxic macrocyclic peptide from the sea slug Pleurobranchus forskalii” (J Nat Prod, 2013).
Numbered stars: 1 amine (or outer) side, 2 acyl side, 3 side chain; on linkers, the order of the positions; unused ones are H or OH. Square brackets hold non-standard residues; d marks the D form. Peptide text beside a SMILES is read from it. X2 = CC[C@H](C)[C@@H](N[*:1])C1=N[C@H](C(=O)[*:2])CS1; X1 = O=C([C@@H]1CSC([C@H]2CCCN2[*:1])=N1)[*:2]

System: P388
Assay: Cytotoxicity against mouse P388 cells after 3 days by MTT assay
Format: functional, cell-based
Settings: P388, 72 h

Structure (SMILES) | IC50 [µM]
CC[C@H](C)[C@@H]1NC(=O)[C@@H]2CSC(=N2)[C@H]2CCCN2C(=O)[C@H]([C@@H](C)O)NC(=O)[C@H](C(C)C)NC(=O)[C@H](C(C)C)NC(=O)[C@H]([C@@H](C)O)NC(=O)[C@@H]2CSC(=N2)[C@@H]([C@@H](C)CC)NC(=O)[C@H](C(C)C)NC(=O)[C@@H]2CSC(=N2)[C@H]2CCCN2C1=O [CYCLOFORSKAMIDE] (cyclo(I[X1]V[X2]TVVT[X1])) | 5.8
COc1cccc2c1C(=O)c1c(O)c3c(c(O)c1C2=O)C[C@@](O)(C(=O)CO)C[C@@H]3O[C@H]1C[C@H](N)[C@H](O)[C@H](C)O1 [DOXORUBICIN] | 0.21
